The text below walks through data of PubChem BioAssay (NCI).

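96-well plates; 48 h exposure; 5 concentrations. Endpoints by linear interpolation between flanking doses. Not reached: highest tested concentration assigned. GI50 is the concentration that inhibits growth by half. TGI: total growth inhibition.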

Among the test systems are HOP-92 NSCLC; HOP-62 NSCLC; OVCAR-4 ovarian; PC-3 prostate; SF-295 CNS; RPMI-8226 leukemia; ACHN renal; A549 NSCLC; T-47D breast; MCF7 breast.
What all share (experiment): NCI tumour cell line growth inhibition, 48 h

For `COC(=O)[C@@]1(C)CC[C@]2(C)CC[C@]3(C)C4=CC=C5C(=CC(=O)C(O)=C5C)[C@]4(C)CC[C@@]3(C)[C@@H]2C1`, the GI50 with HOP-92 NSCLC was 0.163 µM; with HOP-62 NSCLC, 0.483 µM; in the test with OVCAR-4 ovarian, 0.153 µM; in the test on PC-3 prostate, 0.24 µM; in the test on SF-295 CNS it was 0.407 µM; with RPMI-8226 leukemia, 0.183 µM. Also, the GI50 with ACHN renal was 0.154 µM; in the test with A549 NSCLC, 1.21 µM. The TGI in the test on HOP-92 NSCLC turned out to be 0.362 µM; with HOP-62 NSCLC, 1.54 µM; in the test with OVCAR-4 ovarian it was 0.424 µM; in the test on PC-3 prostate, 0.573 µM; with SF-295 CNS, 1.62 µM; in the test with RPMI-8226 leukemia it was 0.517 µM. The figures for the TGI in the test with ACHN renal and with A549 NSCLC were 0.29 µM and 2.54 µM, respectively.

Turning to `C=C1Oc2nc3ccccc3c(=O)n2C1(C)C`, the TGI in the test on HOP-92 NSCLC was greater than 100 µM; in the test on HOP-62 NSCLC it was greater than 100 µM; in the test with OVCAR-4 ovarian, greater than 100 µM; in the test with SF-295 CNS, greater than 10 µM; in the test on RPMI-8226 leukemia, greater than 100 µM; in the test on ACHN renal, greater than 100 µM. This compound also had a TGI in the test on A549 NSCLC greater than 100 µM.

For `COc1cccc(NC(=O)CC(=O)N2NC(C)C(N=Nc3cccc(C(=O)O)c3)C2=O)c1` (stereo unspecified), the TGI with HOP-92 NSCLC, with HOP-62 NSCLC, in the test on OVCAR-4 ovarian, in the test on SF-295 CNS, with RPMI-8226 leukemia and in the test on ACHN renal was greater than 100 µM in each case. This compound returned a TGI in the test with A549 NSCLC greater than 100 µM.

On to `CC(=O)OCC1OC(OC2=C(CC=C(Cl)Cl)C(=O)c3ccccc3C2=O)C(OC(C)=O)C(OC(C)=O)C1OC(C)=O` (stereo unspecified), for which the GI50 in the test on HOP-92 NSCLC is 0.222 µM; in the test with HOP-62 NSCLC, 18.5 µM; with PC-3 prostate, 2.66 µM; in the test with T-47D breast it was 1.99 µM; in the test with SF-295 CNS it was 16.3 µM; in the test on RPMI-8226 leukemia it was 2.05 µM. The GI50 with ACHN renal was 3.24 µM; in the test on A549 NSCLC, 19.5 µM. Further, the TGI in the test with HOP-92 NSCLC was 1.59 µM; in the test with HOP-62 NSCLC, 34.4 µM; with PC-3 prostate it was 11.5 µM; in the test with T-47D breast, 5.41 µM; with SF-295 CNS, 31.4 µM; in the test on RPMI-8226 leukemia, 6.78 µM. The TGI with ACHN renal was 12 µM; in the test with A549 NSCLC, 41.4 µM.

Turning to `C/C(=C\CCc1ccoc1)CC/C=C(\C)CCCN1CCC(CO)CC1`, the GI50 is 1.44 µM in the test on HOP-92 NSCLC; 3.39 µM in the test with HOP-62 NSCLC; 3.28 µM in the test with OVCAR-4 ovarian; 3.24 µM in the test on MCF7 breast; 2.51 µM in the test with T-47D breast; 2.28 µM in the test on SF-295 CNS. The GI50 in the test with RPMI-8226 leukemia is 2.03 µM; in the test on ACHN renal, 4.32 µM; in the test with A549 NSCLC it was 3.26 µM. For the same compound, the TGI in the test with HOP-92 NSCLC turned out to be 6.16 µM; in the test on HOP-62 NSCLC, 9.6 µM; in the test on OVCAR-4 ovarian it was 14.8 µM; in the test on MCF7 breast, 11.6 µM; in the test on T-47D breast it was 8.92 µM; in the test with SF-295 CNS, 5.41 µM. For the same compound, the TGI was 4.48 µM with RPMI-8226 leukemia, 16.7 µM with ACHN renal and 13.8 µM in the test on A549 NSCLC.

For the compound `O=c1c2ccccc2c(=O)c2c1cc(Cl)c1[nH]c3c([nH]c12)c(Cl)cc1c(=O)c2ccccc2c(=O)c13`, the TGI in the test on HOP-62 NSCLC, in the test with OVCAR-4 ovarian, in the test with SF-295 CNS, in the test with RPMI-8226 leukemia, with ACHN renal and in the test on A549 NSCLC was greater than 100 µM each time.

As for `O=C(O)C1c2ccccc2C(C(=O)O)c2ccccc21` (stereo unspecified), the TGI in the test with HOP-92 NSCLC, with HOP-62 NSCLC, with OVCAR-4 ovarian, in the test with SF-295 CNS, in the test on RPMI-8226 leukemia and in the test with ACHN renal was greater than 100 µM in each case. The same compound came in with a TGI in the test on A549 NSCLC greater than 100 µM.

Take `Cc1cc(C(=O)N2CCN(Cc3ccccc3)CC2)c(C)o1`: the TGI with HOP-92 NSCLC, in the test with HOP-62 NSCLC, in the test on OVCAR-4 ovarian, with SF-295 CNS, with RPMI-8226 leukemia and with ACHN renal was greater than 100 µM each time. The compound further came in with a TGI in the test with A549 NSCLC greater than 100 µM.

As for `CCC[CH2][Sn]([CH2]CCC)([O]C(=O)c1nccnc1N)[O]C(=O)c1nccnc1N`, the GI50 is 1.16 µM in the test on HOP-92 NSCLC; 2.12 µM in the test with HOP-62 NSCLC; 2.02 µM in the test with OVCAR-4 ovarian; 1.26 µM in the test on SF-295 CNS; 1.02 µM with ACHN renal; 3.52 µM in the test on A549 NSCLC. The TGI with HOP-92 NSCLC stood at 2.43 µM; with HOP-62 NSCLC, 3.57 µM; in the test on OVCAR-4 ovarian, 3.49 µM; in the test with SF-295 CNS, 2.52 µM; in the test with ACHN renal, 2.19 µM; with A549 NSCLC it was 12.7 µM.

As for `O=C(O)C#CCO`, the TGI in the test with HOP-92 NSCLC, with HOP-62 NSCLC, in the test on OVCAR-4 ovarian, with SF-295 CNS, with RPMI-8226 leukemia and in the test on ACHN renal was greater than 100 µM in each case. Moreover, in the test on A549 NSCLC, the TGI is greater than 100 µM.

Turning to `NCC1OC(OC2C(CO)OC(OC3C(O)C(N)CC(N)C3OC3OC(CO)C(O)C(O)C3N)C2O)C(N)C(O)C1O` (stereo unspecified), the GI50 in the test on HOP-92 NSCLC, with HOP-62 NSCLC, with OVCAR-4 ovarian, in the test on MCF7 breast, in the test on PC-3 prostate and in the test on SF-295 CNS was greater than 50 µg/mL in each case. Further, the GI50 with RPMI-8226 leukemia, in the test on ACHN renal and in the test on A549 NSCLC was greater than 50 µg/mL each time. Also, the TGI in the test with HOP-92 NSCLC, in the test on HOP-62 NSCLC, in the test with OVCAR-4 ovarian, with MCF7 breast, with PC-3 prostate and in the test on SF-295 CNS was greater than 50 µg/mL throughout. The TGI in the test with RPMI-8226 leukemia, in the test on ACHN renal and in the test with A549 NSCLC was greater than 50 µg/mL in each case.

Consider `O=C(Nc1ccccc1Br)c1cccc([N+](=O)[O-])c1O`, for which the TGI is 4.99 µM with HOP-92 NSCLC; 9.79 µM in the test on HOP-62 NSCLC; greater than 28.9 µM with OVCAR-4 ovarian; 25.2 µM in the test on SF-295 CNS; 6.27 µM in the test on RPMI-8226 leukemia; greater than 36.8 µM in the test with ACHN renal. In the test with A549 NSCLC, the TGI was greater than 100 µM.

Take `CC1(C)C(=S)C(C)(C)C1=S`: the TGI in the test on HOP-62 NSCLC, in the test on OVCAR-4 ovarian, with MCF7 breast, in the test with PC-3 prostate, with T-47D breast and in the test on RPMI-8226 leukemia was greater than 100 µM each time. Besides, the TGI with ACHN renal and in the test on A549 NSCLC was greater than 100 µM in each case.
